Assays:
UGT1A1 = target: T1, UGT1A1 (Homo sapiens, UniProt P22309); experiment: Inhibition of recombinant UGT1A1 activity (4-MU glucuronidation)
T1 sequence (P22309 26-533): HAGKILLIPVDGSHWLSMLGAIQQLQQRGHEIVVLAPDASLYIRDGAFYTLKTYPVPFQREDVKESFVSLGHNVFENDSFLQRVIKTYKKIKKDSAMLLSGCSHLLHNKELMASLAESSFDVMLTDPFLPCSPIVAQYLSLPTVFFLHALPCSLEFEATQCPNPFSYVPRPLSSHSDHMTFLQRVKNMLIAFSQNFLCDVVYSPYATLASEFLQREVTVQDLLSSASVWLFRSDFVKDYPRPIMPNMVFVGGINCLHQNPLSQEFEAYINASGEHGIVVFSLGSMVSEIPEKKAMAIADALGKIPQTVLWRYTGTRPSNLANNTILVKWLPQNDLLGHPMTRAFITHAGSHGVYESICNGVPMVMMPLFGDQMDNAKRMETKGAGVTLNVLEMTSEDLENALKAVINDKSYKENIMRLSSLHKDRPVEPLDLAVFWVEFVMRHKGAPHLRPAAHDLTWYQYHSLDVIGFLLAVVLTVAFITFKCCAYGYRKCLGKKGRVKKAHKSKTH
Procedure: (§1) A panel of recombinant human UGT supersomes (UGT1A1, UGT1A3, UGT1A4, UGT1A6, UGT1A7, UGT1A8, UGT1A9, UGT1A10, UGT2B4, UGT2B7, UGT2B15, and UGT2B17) expressed in baculovirus-infected insect cells were purchased from BD Gentest Corp. (Woburn, MA, USA).
(§2) 4-MU, a nonselective substrate of UGTs, was used as probe substrate for all UGTs except UGT1A4. Incubations with each individual enzyme were conducted using conditions previously described. There was a 5 min preincubation step at 37°C before the reaction was started by addition of UDPGA. The incubation mixtures were then centrifuged at 20,500 ×g for 15 min to obtain the supernatant. Aliquots (20 μL) were then analyzed by HPLC. The HPLC system (SHIMADZU, Kyoto, Japan) consisted of an SCL-10A system controller, two LC-10AT pumps, a SIL-10A auto injector, and a SPD-10AVP UV detector. Chromatographic separation was achieved using a Kromasil ODS column (4.6 × 150 mm I.D., 5 μm particle size) at a flow rate of 1 mL/min and UV detection at 316 nm. The mobile phase consisted of 10 mM KH2PO4, pH 2.7 (A) and acetonitrile (B). The following gradient was applied at a flow rate of 1 mL/min: 0–4 min 80% A and 20% B, 4.1–8 min 50% A and 50% B, 8.1–12 min, 30% A and 70% B. All experiments were performed in two independent experiments in duplicate.
A typical incubation mixture contained recombinant human UGTs, 5 mM MgCl2, 5 mM UDPGA, 50 μg/mg protein alamethicin, 50 mM Tris-HCl buffer (pH 7.4), and various probe substrates of UGTs in the absence or presence of different concentrations of inhibitors. […] The final concentration of DMSO in the incubation system was 1% (v/v). […]
Inhibition data from experiments were graphically represented by Dixon plots. K i values were calculated by nonlinear regression using the equations for competitive inhibition (1), noncompetitive inhibition (2), or mixed inhibition (3), [22] […] The type of inhibition was determined from the enzyme inhibition models. Goodness of fit to kinetic and inhibition models was assessed from the F statistic, r ^2 values, parameter standard error estimates, and 95% confidence intervals. […]

UGT1A7 = target: T2, UGT1A7 (Homo sapiens, UniProt Q9HAW7); experiment: Inhibition of recombinant UGT1A7 activity (4-MU glucuronidation)
T2 sequence (Q9HAW7 26-530): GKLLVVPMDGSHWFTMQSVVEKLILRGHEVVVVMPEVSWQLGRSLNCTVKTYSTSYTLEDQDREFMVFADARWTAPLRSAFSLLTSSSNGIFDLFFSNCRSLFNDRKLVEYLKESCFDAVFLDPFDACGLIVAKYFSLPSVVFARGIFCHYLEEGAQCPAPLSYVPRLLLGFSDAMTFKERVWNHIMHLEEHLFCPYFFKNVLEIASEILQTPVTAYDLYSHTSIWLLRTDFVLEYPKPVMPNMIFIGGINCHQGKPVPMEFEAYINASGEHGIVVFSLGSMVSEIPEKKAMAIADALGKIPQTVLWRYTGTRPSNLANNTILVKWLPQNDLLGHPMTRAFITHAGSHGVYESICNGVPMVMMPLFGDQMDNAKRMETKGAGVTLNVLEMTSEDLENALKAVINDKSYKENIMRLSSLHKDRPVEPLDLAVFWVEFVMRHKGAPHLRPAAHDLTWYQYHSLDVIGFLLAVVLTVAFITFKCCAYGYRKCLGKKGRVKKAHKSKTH
Procedure: as §1, §2
A typical incubation mixture contained recombinant human UGTs, 5 mM MgCl2, 5 mM UDPGA, 50 μg/mg protein alamethicin, 50 mM Tris-HCl buffer (pH 7.4), and various probe substrates of UGTs in the absence or presence of different concentrations of inhibitors. […] The final concentration of DMSO in the incubation system was 1% (v/v). […] Known UGT inhibitors were used as positive controls: diclofenac for UGT1A1, UGT1A6, UGT1A7, and UGT1A9; androsterone for UGT1A3, UGT2B7, and UGT2B15, phenylbutazone for UGT1A8 and UGT1A10, and hecogenin for UGT1A4, respectively. There is no positive control reported available for UGT2B4 and UGT2B17. The negative controls are the incubation without UDPGA. […] The final concentration of DMSO in the incubation system was 1% (v/v). […] There was a 5 min preincubation step at 37°C before the reaction was started by the addition of UDPGA. Incubation times were 120 min for UGT1A1, UGT1A10, UGT2B4, UGT2B15, and UGT2B17, 75 min for UGT1A3, and 30 min for UGT1A4, UGT1A6, UGT1A7, UGT1A8, and UGT1A9. The reactions were quenched by adding 100 μL acetonitrile and internal standard. The incubation mixtures were then centrifuged at 20,500 ×g for 15 min to obtain the supernatant. An aliquot of the supernatant was used for HPLC analysis as described above. All experiments were performed in two independent experiments in duplicate.
Inhibition data from experiments were graphically represented by Dixon plots. K i values were calculated by nonlinear regression using the equations for competitive inhibition (1), noncompetitive inhibition (2), or mixed inhibition (3), [22] (1) v =VmaxS/Km(1+(I/Ki))+S, (2) v =VmaxS/(Km+S)(1+(I/Ki)), (3) v =VmaxS/Km (1+(I/Ki))+S(1+(I/αKi)), where v is the velocity of the reaction; S and I are the substrate and inhibitor concentrations, respectively; K i is the inhibition constant describing the affinity of the inhibitor for the enzyme; K m is the substrate concentration at half of the maximum velocity (V max) of the reaction; α reflects the effect of inhibitor on the affinity of the enzyme for its substrate. The type of inhibition was determined from the enzyme inhibition models. Goodness of fit to kinetic and inhibition models was assessed from the F statistic, r ^2 values, parameter standard error estimates, and 95% confidence intervals. Kinetic constants are reported as the mean value ± standard error of the parameter estimate.

[1] = reported value, as fraction; cited from earlier work
[2] = cited from earlier work
CYPs = tested on: CYPs; set-up: method as in PMID 16476124; details: previous studies; cited from earlier work
[3] = set-up: method as in PMID 17632044; details: after a single oral administration of Epimedium pubescens decoction; cited from earlier work

| Structure (SMILES) | IC50 (UGT1A1) [µM] | IC50 (UGT1A7) [µM] | Oral bioavailability [1] | Fraction of icariin transformed into its intestinal metabolites in the intestinal lumen [2] | Inhibitory effect on CYPs activities (CYPs) | Ki (UGT1A7) [µM] | Inhibition type against UGT1A7 (UGT1A7; recombinant UGT1A7) | α of mixed inhibition against UGT1A7 (UGT1A7; recombinant UGT1A7, mixed inhibition model) | Reported icaritin concentration in blood [3] [nM] |
| --- | --- | --- | --- | --- | --- | --- | --- | --- | --- |
| COc1ccc(-c2oc3c(CC=C(C)C)c(O[C@@H]4O[C@H](CO)[C@@H](O)[C@H](O)[C@H]4O)cc(O)c3c(=O)c2O[C@@H]2O[C@@H](C)[C@H](O)[C@@H](O)[C@H]2O)cc1 [Icariin] | > 100 | > 100 | 0.12 | about 70% | no inhibitory effects | – | – | – | – |
| COc1ccc(-c2oc3c(CC=C(C)C)c(O)cc(O)c3c(=O)c2O)cc1 [Icaritin] | > 100 | 0.3 | – | – | – | 0.7 ± 0.2 | mixed | 2.7 | 1.5 |
| COc1ccc(-c2oc3c(CC=C(C)C)c(O[C@@H]4O[C@H](CO)[C@@H](O)[C@H](O)[C@H]4O)cc(O)c3c(=O)c2O)cc1 [Icariside I] | > 100 | > 100 | – | – | – | – | – | – | – |

— article PMC3479967 (Evidence-based Complementary and Alternative Medicine : eCAM, 2012)
